Test results: patent publication US12036312B2, “Non-aqueous topical compositions comprising a halogenated salicylanilide” (priority 2016, dated 2024)
Values after ≈ are worked out from the molar mass of the structure shown.

Test system: S. aureus
Test: MIC assay according to CLSI criteria, Example 2, S. aureus strains
Format: cell-based, Staphylococcus aureus
Conditions: Staphylococcus aureus
Excerpt: Chosen for its relevance regarding bacterial skin infections, the methicillin-resistant S. aureus (MRSA) 01 strain was used as the primary test microorganism. This strain is a community-acquired MRSA clinical isolate of USA 300 type, from a skin abscess.
Two-hundred-four other MRSA and methicillin-sensitive S. aureus strains, and 4 Streptococcus pyogenes strains, were also included in the study. These covered fusidic acid- and mupirocin-resistant strains, these two types of resistance being of clinical relevance.
Strains were conserved in Luria Bertani (LB) Broth (S. aureus) or Brain Heart Infusion (BHI) (S. pyogenes) supplemented with glycerol 15% (v/v) at −80° C., and reactivated by isolation on LB (S. aureus) or BHI (S. pyogenes) agar plates. Strains were cultivated in Mueller Hinton (MH) Broth-cation adjusted (S. aureus) or BHI (S. pyogenes). All strains were cultivated aerobically (microaerobically for S. pyogenes strains) at 37° C.
Bacterial cultures were stopped in their exponential growth phase and plates were inoculated with the approximate concentration of 5×10^5 cells per well. Plates were incubated at 37° C. for 18 hours (S. aureus) or 24 hours (S. pyogenes). Optical density at a wavelength of 600 nm was measured at the end of the incubation time.

With `CN[C@H](CC(C)C)C(=O)N[C@H]1C(=O)N[C@@H](CC(N)=O)C(=O)N[C@H]2C(=O)N[C@H]3C(=O)N[C@H](C(=O)N[C@H](C(=O)O)c4cc(O)cc(O)c4-c4cc3ccc4O)[C@H](O)c3ccc(c(Cl)c3)Oc3cc2cc(c3O[C@@H]2O[C@H](CO)[C@@H](O)[C@H](O)[C@H]2O[C@H]2C[C@](C)(N)[C@H](O)[C@H](C)O2)Oc2ccc(cc2Cl)[C@H]1O` [Vancomycin, vancomycin] the MIC (ATCC29213, strain ATCC 29213) was 1 µg/mL (≈ 0.69 µM), the MIC (MRSA, strain MRSA 01) was 1 µg/mL (≈ 0.69 µM) and the MIC (MRSA, strain MRSA 02) was 2 µg/mL (≈ 1.38 µM). It also gave an MIC (MRSA, strain MRSA 03) of 1 µg/mL (≈ 0.69 µM), an MIC (MRSA, strain MRSA 04) of 2 µg/mL (≈ 1.38 µM) and an MIC (MRSA, strain MRSA 05) of 1 µg/mL (≈ 0.69 µM). The MIC (MRSA, strain MRSA 06) was 2 µg/mL (≈ 1.38 µM), the MIC (MRSA, strain MRSA 07) was 1 µg/mL (≈ 0.69 µM) and the MIC (MRSA, strain MRSA 08) was 1 µg/mL (≈ 0.69 µM). It also gave an MIC (MRSA, strain MRSA 09) of 2 µg/mL (≈ 1.38 µM), an MIC (MRSA, strain MRSA 10) of 1 µg/mL (≈ 0.69 µM) and an MIC (MRSA, strain MRSA 11) of 1 µg/mL (≈ 0.69 µM). For the same compound, the MIC (MRSA, strain MRSA 13) was 1 µg/mL (≈ 0.69 µM), the MIC (MRSA, strain MRSA 14) was 1 µg/mL (≈ 0.69 µM) and the MIC (MRSA, strain MRSA 15) was 2 µg/mL (≈ 1.38 µM). It also gave an MIC (MRSA, strain MRSA 16) of 1 µg/mL (≈ 0.69 µM), an MIC (MRSA, strain MRSA 17) of 2 µg/mL (≈ 1.38 µM) and an MIC (MRSA, strain MRSA 18) of 1 µg/mL (≈ 0.69 µM). It also gave an MIC (MRSA, strain MRSA 19) of 1 µg/mL (≈ 0.69 µM), an MIC (MRSA, strain MRSA 20) of 1 µg/mL (≈ 0.69 µM) and an MIC (MRSA, strain MRSA 21) of 1 µg/mL (≈ 0.69 µM). The MIC (MRSA, strain MRSA 22) was 0.5 µg/mL (≈ 0.345 µM), the MIC (MRSA, strain MRSA 23) was 1 µg/mL (≈ 0.69 µM) and the MIC (MRSA, strain MRSA 24) was 2 µg/mL (≈ 1.38 µM). For the same compound, the MIC (MRSA, strain MRSA 25) was 1 µg/mL (≈ 0.69 µM), the MIC (MRSA, strain MRSA 26) was 1 µg/mL (≈ 0.69 µM) and the MIC (MRSA, strain MRSA 27) was 1 µg/mL (≈ 0.69 µM). It also gave an MIC (MRSA, strain MRSA 27b) of 1 µg/mL (≈ 0.69 µM), an MIC (MRSA, strain MRSA 28) of 1 µg/mL (≈ 0.69 µM) and an MIC (MRSA, strain MRSA 29) of 1 µg/mL (≈ 0.69 µM). The MIC (MRSA, strain MRSA 30) was 1 µg/mL (≈ 0.69 µM), the MIC (MRSA, strain MRSA 31) was 1 µg/mL (≈ 0.69 µM) and the MIC (MRSA, strain MRSA 32) was 1 µg/mL (≈ 0.69 µM). The MIC (MRSA, strain MRSA 33) was 1 µg/mL (≈ 0.69 µM), the MIC (MRSA, strain MRSA 34) was 1 µg/mL (≈ 0.69 µM) and the MIC (MRSA, strain MRSA 35) was 1 µg/mL (≈ 0.69 µM). The MIC (MRSA, strain MRSA 36) was 1 µg/mL (≈ 0.69 µM), the MIC (MRSA, strain MRSA 37) was 1 µg/mL (≈ 0.69 µM) and the MIC (MRSA, strain MRSA 38) was 1 µg/mL (≈ 0.69 µM). It also gave an MIC (MRSA, strain MRSA 39) of 1 µg/mL (≈ 0.69 µM), an MIC (MRSA, strain MRSA 40) of 1 µg/mL (≈ 0.69 µM) and an MIC (MRSA, strain MRSA 41) of 1 µg/mL (≈ 0.69 µM). For the same compound, the MIC (MRSA, strain MRSA 42) was 1 µg/mL (≈ 0.69 µM), the MIC (MRSA, strain MRSA 43) was 1 µg/mL (≈ 0.69 µM) and the MIC (MRSA, strain MRSA 44) was 1 µg/mL (≈ 0.69 µM). For the same compound, the MIC (MRSA, strain MRSA 45) was 1 µg/mL (≈ 0.69 µM), the MIC (MRSA, strain MRSA 46) was 1 µg/mL (≈ 0.69 µM) and the MIC (MRSA, strain MRSA 47) was 0.5 µg/mL (≈ 0.345 µM). It also gave an MIC (MRSA, strain MRSA 48) of 0.5 µg/mL (≈ 0.345 µM), an MIC (MRSA, strain MRSA 49) of 2 µg/mL (≈ 1.38 µM) and an MIC (MRSA, strain MRSA 50) of 1 µg/mL (≈ 0.69 µM). For the same compound, the MIC (MRSA, strain MRSA 51) was 1 µg/mL (≈ 0.69 µM), the MIC (MRSA, strain MRSA 52) was 1 µg/mL (≈ 0.69 µM) and the MIC (MRSA, strain MRSA 53) was 1 µg/mL (≈ 0.69 µM). The MIC (MRSA, strain MRSA 54) was 2 µg/mL (≈ 1.38 µM), the MIC (MRSA, strain MRSA 55) was 0.5 µg/mL (≈ 0.345 µM) and the MIC (MRSA, strain MRSA 56) was 1 µg/mL (≈ 0.69 µM). The MIC (MRSA, strain MRSA 57) was 1 µg/mL (≈ 0.69 µM), the MIC (MRSA, strain MRSA 58) was 1 µg/mL (≈ 0.69 µM) and the MIC (MRSA, strain MRSA 59) was 1 µg/mL (≈ 0.69 µM). The MIC (MRSA, strain MRSA 60) was 0.5 µg/mL (≈ 0.345 µM), the MIC (MRSA, strain MRSA 61) was 2 µg/mL (≈ 1.38 µM) and the MIC (MRSA, strain MRSA 62) was 2 µg/mL (≈ 1.38 µM). It also gave an MIC (MRSA, strain MRSA 63) of 1 µg/mL (≈ 0.69 µM), an MIC (MRSA, strain MRSA 64) of 1 µg/mL (≈ 0.69 µM) and an MIC (MRSA, strain MRSA 65) of 1 µg/mL (≈ 0.69 µM). It also gave an MIC (MRSA, strain MRSA 66) of 1 µg/mL (≈ 0.69 µM), an MIC (MRSA, strain MRSA 67) of 1 µg/mL (≈ 0.69 µM) and an MIC (MRSA, strain MRSA 68) of 1 µg/mL (≈ 0.69 µM). For the same compound, the MIC (MRSA, strain MRSA 69) was 1 µg/mL (≈ 0.69 µM), the MIC (MRSA, strain MRSA 70) was 1 µg/mL (≈ 0.69 µM) and the MIC (MRSA, strain MRSA 71) was 1 µg/mL (≈ 0.69 µM). The MIC (MRSA, strain MRSA 72) was 1 µg/mL (≈ 0.69 µM), the MIC (MRSA, strain MRSA 73) was 1 µg/mL (≈ 0.69 µM) and the MIC (MRSA, strain MRSA 74) was 1 µg/mL (≈ 0.69 µM). For the same compound, the MIC (MRSA, strain MRSA 75) was 1 µg/mL (≈ 0.69 µM), the MIC (MRSA, strain MRSA 76) was 1 µg/mL (≈ 0.69 µM) and the MIC (MRSA, strain MRSA 77) was 2 µg/mL (≈ 1.38 µM). It also gave an MIC (MRSA, strain MRSA 78) of 1 µg/mL (≈ 0.69 µM), an MIC (MRSA, strain MRSA 79) of 1 µg/mL (≈ 0.69 µM) and an MIC (MRSA, strain MRSA 80) of 1 µg/mL (≈ 0.69 µM). It also gave an MIC (MRSA, strain MRSA 81) of 1 µg/mL (≈ 0.69 µM), an MIC (MRSA, strain MRSA 82) of 2 µg/mL (≈ 1.38 µM) and an MIC (MRSA, strain MRSA 83) of 1 µg/mL (≈ 0.69 µM). It also gave an MIC (MRSA, strain MRSA 84) of 2 µg/mL (≈ 1.38 µM), an MIC (MRSA, strain MRSA 85) of 1 µg/mL (≈ 0.69 µM) and an MIC (MRSA, strain MRSA 86) of 2 µg/mL (≈ 1.38 µM). For the same compound, the MIC (MRSA, strain MRSA 87) was 1 µg/mL (≈ 0.69 µM), the MIC (MRSA, strain MRSA 88) was 1 µg/mL (≈ 0.69 µM) and the MIC (MRSA, strain MRSA 89) was 1 µg/mL (≈ 0.69 µM). For the same compound, the MIC (MRSA, strain MRSA 90) was 1 µg/mL (≈ 0.69 µM), the MIC (MRSA, strain MRSA 91) was 1 µg/mL (≈ 0.69 µM) and the MIC (MRSA, strain MRSA 92) was 1 µg/mL (≈ 0.69 µM). It also gave an MIC (MRSA, strain MRSA 93) of 2 µg/mL (≈ 1.38 µM), an MIC (MRSA, strain MRSA 94) of 2 µg/mL (≈ 1.38 µM) and an MIC (MRSA, strain MRSA 95) of 2 µg/mL (≈ 1.38 µM). For the same compound, the MIC (MRSA, strain MRSA 96) was 1 µg/mL (≈ 0.69 µM), the MIC (MRSA, strain MRSA 97) was 1 µg/mL (≈ 0.69 µM) and the MIC (MRSA, strain MRSA 98) was 1 µg/mL (≈ 0.69 µM). The MIC (MRSA, strain MRSA 99) was 1 µg/mL (≈ 0.69 µM), the MIC (MRSA, strain MRSA 100) was 1 µg/mL (≈ 0.69 µM) and the MIC (MRSA, strain MRSA 101) was 1 µg/mL (≈ 0.69 µM).
